Data published in publication PMC12169615, “Fluorescent 4‑Nitrobenzo-2-oxa-1,3-diazole-Coupled Bile Acids as Probe Substrates of Hepatic and Intestinal Bile Acid Transporters of the Solute Carrier Families SLC10 and SLCO” (Journal of Medicinal Chemistry, 2025).

Target: T1, human ASBT (Homo sapiens, UniProt Q12908)
T1 sequence (Q12908 1-348): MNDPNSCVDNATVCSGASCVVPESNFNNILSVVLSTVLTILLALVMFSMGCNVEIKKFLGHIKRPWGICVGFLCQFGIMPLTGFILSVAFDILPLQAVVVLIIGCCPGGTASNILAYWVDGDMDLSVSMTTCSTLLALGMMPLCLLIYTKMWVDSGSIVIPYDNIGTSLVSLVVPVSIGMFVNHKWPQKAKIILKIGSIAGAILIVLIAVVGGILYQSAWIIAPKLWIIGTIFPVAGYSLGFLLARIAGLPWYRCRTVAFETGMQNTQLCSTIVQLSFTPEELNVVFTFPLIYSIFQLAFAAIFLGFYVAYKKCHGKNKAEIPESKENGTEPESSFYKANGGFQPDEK
Assay: Quantitative uptake of 3-NBD-BA in carrier-expressing HEK293 cells (fluorescence reader)
Format: cell-based
Set-up: stably transfected with the full open reading frames of human NTCP, ASBT, SOAT, OATP1B1, and OATP1B3; expressed in transfected cells
Conditions: ASBT-HEK293, 25 μM, 37 °C, +Na+ vs -Na+
Procedure: For quantification of the transport activity of the synthesized NBD-BA, all cell lines were seeded on 96 well plates and transport experiments were performed under the same control conditions (-Na^+ control for the SLC10 carriers and nontransfected HEK293 cells for the OATP carriers) as before (Figure ). For each NBD-BA, a substrate concentration of 25 μM was used, and the uptake phase was terminated after 10 min of incubation at 37 °C. […] The transport ratios ranged from 3-fold to 39-fold. In direct comparison, 3α-NBD-TCA (14d) and 3α-NBD-GCA (16d) were transported better than their 3β-analogs 3β-NBD-TCA (14a) and 3β-NBD-GCA (16a), respectively, clearly pointing to a preference for the α-position over the β-position of the 3-NBD-label. In direct comparison between the taurine- or glycine-conjugation of the respective NBD-BA, there was a clear preference for 3α-NBD-GCA (16d) over 3α-NBD-TCA (14d), at least for NTCP and mAsbt, pointing to a favorable substrate recognition for glycine-conjugated NBD-BA.
5 Quantitative uptake experiments with the 3-NBD-BA in HEK293 cells stably expressing the human carriers NTCP, ASBT, SOAT, OATP1B1, and OATP1B3, or the mouse carriers mNtcp and mAsbt. For the SLC10 carriers, all transport experiments were performed in the presence (filled bars) and the absence (hatched bars) of sodium. For the OATP carriers, uptake into carrier-expressing cells (filled bars) was compared to uptake into non-carrier-expressing HEK293 cells (hatched bars). All cell lines were incubated at 37 °C for 10 min with the indicated 3-NBD-BA at 25 μM. Then, cells were washed with PBS and subjected to fluorescence detection. The following fluorescent BA were analyzed: 3α-NBD-TCA (14d), 3β-NBD-TCA (14a), 3α-NBD-GCA (16d), 3β-NBD-GCA (16a), 3β-NBD-TCDCA (14b), 3β-NBD-CDCA (6b), 3β-NBD-DCA (6c), 3α-NBD-CA (6d), and 3β-NBD-CA (6a). Data represent means ± SD of triplicate determinations of representative experiments. […] RFU, relative fluorescence units. TEXT PRINTED IN THE PICTURE: 3α-NBD-TCA (14d): NTCP: 9 X; mNtcp: 30 X; ASBT: 2 X; mAsbt: 14 X | 3ß-NBD-TCA (14a): NTCP: 12 X; mNtcp: 20 X; mAsbt: 18 X | 3α-NBD-GCA (16d): NTCP: 27 X; mNtcp: 26 X; ASBT: 3 X; mAsbt: 39 X | 3ß-NBD-GCA (16a): NTCP: 15 X; mNtcp: 14 X; mAsbt: 5 X | 3ß-NBD-TCDCA (14b): NTCP: 5 X; mNtcp: 3 X; mAsbt: 4 X | 3ß-NBD-CDCA (6b): mNtcp: < 2 X; ASBT: < 2 X; mAsbt: < 2 X; OATP1B1: < 2 X; OATP1B3: < 2 X | 3ß-NBD-DCA (6c): mNtcp: < 2 X; ASBT: < 2 X; mAsbt: < 2 X | 3α-NBD-CA (6d): mNtcp: 2 X; mAsbt: 4 X | 3ß-NBD-CA (6a): NTCP: 2 X; mNtcp: 2 X; mAsbt: 2 X DOUBTS OF THE COPYIST ABOUT THIS PICTURE: The picture prints no panel letters, so the chart titles (NTCP, mNtcp, ASBT, mAsbt, OATP1B1, OATP1B3) are written in front of the values as the target. / Substance labels: the sign after '3' is printed like 'ß' and may be meant as 'β'. / The 'ns' marks and significance asterisks were left out as statistics. The SOAT chart prints only 'ns'.

Molecule	Specific transport ratio ASBT (25µM/10 min uptake)
7α-Hydroxy-3β-[(7-nitro-2,1,3-benzoxadiazol-4-yl)amino]-5β-cholan-24-oate [6b]	<2x x-fold
12α-Hydroxy-3β-[(7-nitro-2,1,3-benzoxadiazol-4-yl)amino]-5β-cholan-24-oate [6c]	<2x x-fold
C[C@H](CCC(=O)O)[C@H]1CC[C@H]2[C@@H]3[C@H](O)C[C@@H]4C[C@@H](Nc5ccc([N+](=O)[O-])c6nonc56)CC[C@]4(C)[C@H]3C[C@H](O)[C@]12C [6a, 7α,12α-Dihydroxy-3β-[(7-nitro-2,1,3-benzoxadiazol-4-yl)amino]-5β-cholan-24-oate]	ns
C[C@H](CCC(=O)O)[C@H]1CC[C@H]2[C@@H]3[C@H](O)C[C@@H]4C[C@H](Nc5ccc([N+](=O)[O-])c6nonc56)CC[C@]4(C)[C@H]3C[C@H](O)[C@]12C [6d, 7α,12α-Dihydroxy-3α-[(7-nitro-2,1,3-benzoxadiazol-4-yl)amino]-5β-cholan-24-oate]	ns
C[C@H](CCC(=O)NCCS(=O)(=O)[O-])[C@H]1CC[C@H]2[C@@H]3[C@H](O)C[C@@H]4C[C@@H](Nc5ccc([N+](=O)[O-])c6nonc56)CC[C@]4(C)[C@H]3C[C@H](O)[C@]12C.[Na+] [14a]	not transported and ns
C[C@H](CCC(=O)NCC(=O)O)[C@H]1CC[C@H]2[C@@H]3[C@H](O)C[C@@H]4C[C@@H](Nc5ccc([N+](=O)[O-])c6nonc56)CC[C@]4(C)[C@H]3C[C@H](O)[C@]12C [16a]	not transported and ns
